Data reported in PubChem BioAssay (NCI).
Where “and” joins values, the source holds several entries; their conditions need not be identical. Equal values may be shown once.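 Step 1: Grow cells in 96-well plates. Step 2: Expose to compound for 48 hours at 5 concentrations. Step 3: Interpolate endpoints linearly; if unreached, use highest concentration. Abbreviation: GI50, concentration required for 50% inhibition of growth. TGI denotes the concentration required for complete inhibition of growth.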

Experiments:
Assay in all cases: growth of human tumour cells (NCI), 48 h
DMS 273 small cell lung = tested on: DMS 273 small cell lung
HOP-18 NSCLC = tested on: HOP-18 NSCLC
KM20L2 colon = tested on: KM20L2 colon
LXFL 529 NSCLC = tested on: LXFL 529 NSCLC
M19-MEL melanoma = tested on: M19-MEL melanoma
MDA-N = tested on: MDA-N
XF 498 CNS = tested on: XF 498 CNS
MCF7 breast = tested on: MCF7 breast
RXF-631 renal = tested on: RXF-631 renal

Row | SMILES | TGI (DMS 273 small cell lung) [µM] | TGI (HOP-18 NSCLC) [µM] | TGI (KM20L2 colon) [µM] | TGI (LXFL 529 NSCLC) [µM] | TGI (M19-MEL melanoma) [µM] | TGI (XF 498 CNS) [µM] | TGI (MCF7 breast) | GI50 (MCF7 breast) | further results
1 | O=C1c2nc3n(c2C(=O)c2c1nc1n2CCC1)CCC3 | 12.7 | 27.2 | 11.4 | 21.5 | 0.387 | 19.6 |  |  | TGI (MDA-N): 3.47 µM
2 | CC1=C(/C=C/C(C)=C/C=C/C(C)=C/CO)C(C)(C)CCC1 |  |  |  |  |  |  |  |  | TGI (MDA-N): > 100 µM
3 | C=CS(=O)(=O)CCN1CC1 |  |  |  |  |  |  | > 10 µM |  | TGI (MDA-N): > 10 µM
4 | CC(CCCOC(c1ccccc1)(c1ccccc1)c1ccccc1)OC(=O)Nc1ccccc1 (stereo not drawn) | 29.3 |  | 19.8 | 26 | 28.3 | 28.1 |  |  | 
5 | O=S(=O)(NCCNc1nccc(-c2c(-c3ccc(F)cc3)nc3sccn23)n1)c1ccccc1 |  |  |  |  |  |  | > 100 µM | 0.722 µM | 
6 | COc1ccc(OC)c(Nc2nc(-c3c(C)nc4sccn34)cs2)c1 |  |  |  |  |  |  | > 100 µM | 1.95 µM | 
7 | CO[C@H]1CC(c2ccc[nH]2)=N[C@]12O[C@@H](C)C[C@@H]1CCCCCCCc3ccc([nH]3)[C@H]12 |  |  |  |  |  |  | > 16.7 µM | 0.968 µM | 
8 | COC(=O)CCC(=O)NC1C2CC3CC(C2)CC1C3 (stereo not drawn) | > 100 | > 100 | > 100 | > 100 | > 100 | > 100 |  |  | TGI (RXF-631 renal): > 100 µM
9 | O=C1OC(c2ccccc2)=N/C1=C\c1cccc(F)c1 |  |  |  |  |  |  | > 100 µM |  | TGI (MDA-N): > 100 µM
10 | COc1cc(/C=C/C(=O)c2cccnc2Nc2ccc(F)cc2)cc(OC)c1OC |  |  |  |  |  |  | 13.6 µM | 2.44 µM | 
11 | O=[N+]([O-])c1ccc(Cl)cc1C1SCc2nc3ccccc3n21 (stereo not drawn) | > 100 | > 100 | > 100 | > 100 | > 100 | > 100 |  |  | TGI (RXF-631 renal): > 100 µM
12 | C=C1[C@@H]([C@@]2(C)C=CC(=O)C(C)(C)[C@@H]2CC(=O)OC)CC[C@@]2(C)C(c3ccoc3)OC(=O)[C@H]3O[C@]132 (stereo partly drawn) |  |  |  |  |  |  | > 100 µM |  | TGI (MDA-N): > 100 µM
13 | Cc1ncc([N+](=O)[O-])n1CCNC(=O)Cn1c([N+](=O)[O-])cnc1C |  |  |  |  |  |  | > 100 µM |  | TGI (MDA-N): > 100 µM
14 | COc1cc(Cl)cc(-c2nn(-c3cccc(NC(=O)Nc4ccc(Cl)c(C(F)(F)F)c4)c3)cc2-c2ccncc2)c1 |  |  |  |  |  |  | 11 µM | 1.01 µM | 
15 | COc1ccc(Nc2c3ccccc3nc3[nH]c4ccccc4c23)cc1 |  |  |  |  |  |  | > 50 µM | 7.95 µM | 
16 | CCOC(OC1=C(C#N)CCCC1)C(C)[Se]c1ccccc1 (stereo not drawn) | 33.7 | > 100 | > 100 | > 100 | 96.5 | 57 |  |  | 
17 | O=C1C=CC(O)C2C1CC13SSC4(CC5C(=O)C=CC(O)C5N4C1=O)C(=O)N23 (stereo not drawn) |  |  |  |  |  |  | > 100 µM |  | 
18 | CC(=O)C1=CCC2c3[nH]c4ccccc4c3CCN2C1 (stereo not drawn) | > 100 | > 100 | 46.2 | > 100 | > 100 | > 100 |  |  | TGI (RXF-631 renal): > 100 µM

Row | SMILES | TGI (DMS 273 small cell lung) [µM] | TGI (HOP-18 NSCLC) [µM] | TGI (KM20L2 colon) [µM] | TGI (LXFL 529 NSCLC) [µM] | TGI (M19-MEL melanoma) [µM] | TGI (XF 498 CNS) [µM] | TGI (MCF7 breast) | GI50 (MCF7 breast) | further results
19 | Oc1ccc(Cl)cc1CNc1nc2ccccc2[nH]1 |  |  |  |  |  |  | 33.1 µM | 10.4 µM | 
20 | CN(C)C(=S)/N=c1\ss/c(=N\S(=O)(=O)c2ccccc2)n1N(C)C | > 100 | > 100 | > 100 | > 100 | > 100 |  |  |  | TGI (RXF-631 renal): > 100 µM
21 | Cc1cc2c(cc1N)C(C)C1(CCC(=O)N2Cc2ccccc2)OCCO1 (stereo not drawn) |  |  |  |  |  |  | > 100 µM |  | TGI (MDA-N): > 100 µM
22 | COc1ccc(CCNCCCC2c3ccccc3-c3ccccc32)cc1OC | 21.2 | 30.6 | 12.4 | 27.5 | 24.5 | 28.2 | 20.3 µM |  | TGI (MDA-N): 30.8 µM
23 | O=C(Nc1ccn(CCI)c(=O)n1)c1ccccc1 | > 100 | > 100 | > 100 | > 100 | > 100 |  |  |  | 
24 | C=C1c2c(Cl)ccc(O)c2C(O)=C2C(=O)[C@]3(O)C(O)=C(C(N)=O)C(=O)[C@@H](N(C)C)[C@@H]3[C@@H](O)[C@H]12 |  |  |  |  |  |  | 6.66 µM | 1.76 µM | 
25 | O=C(O)C1=C(C(=O)Nc2ccc(NC(=O)C3=C(C(=O)O)C4C=CC3C4)cc2)C2C=CC1C2 | > 100 | > 100 | > 100 | > 100 | > 100 | > 100 |  |  | 
26 | CN(/N=N/c1nc(OCc2ccccc2)c2[nH]cnc2n1)C(=O)Oc1ccc([N+](=O)[O-])cc1 |  |  |  |  |  |  | > 50 µM | 12.4 µM | 
27 | O=C1CC(c2ccc(Cl)cc2)Oc2ccccc21 (stereo not drawn) |  |  |  |  |  |  | 13.6 µM |  | 
28 | [Cl][Cd][Cl] | 31.2 | > 62.1 |  | 28.4 | 24.1 | 43.1 | 19.2 µM | 9.11 µM | GI50 (DMS 273 small cell lung): 15.1 µM; GI50 (HOP-18 NSCLC): > 42.3 µM; GI50 (LXFL 529 NSCLC): 13.3 µM; GI50 (M19-MEL melanoma): 11.2 µM; GI50 (MDA-N): 4.61 µM and 8.24 µM; TGI (MDA-N): 21.4 µM; GI50 (RXF-631 renal): 38.8 µM; TGI (RXF-631 renal): > 88.9 µM; GI50 (XF 498 CNS): 23.4 µM
29 | CN1CC(=O)N(C)c2nc[nH]c2C1=O | > 100 | > 100 |  | > 100 | > 100 | > 100 |  |  | TGI (RXF-631 renal): > 100 µM
30 | C=CCCCc1ccc(C(O)CCCCCCCCCCCC)o1 (stereo not drawn) |  |  |  |  |  |  | 48.3 µM | 17.6 µM | 
31 | OCCN1CCN(CC/C=C2\c3ccccc3Sc3ccc(Cl)cc32)CC1 |  |  |  |  |  |  | 3.34 µM and 5.45 µM | 1.52 µM and 2.21 µM | 
32 | C[C@H]1C(=O)CC[C@]2(C)CCC(C(C)(C)O)CC12O (stereo partly drawn) | > 100 | > 100 | > 100 | > 100 |  |  |  |  | TGI (RXF-631 renal): > 100 µM
33 | CCC(=O)N/N=C(\C=C\c1cccc(O)c1)c1sc(Nc2ccc(C)cc2[N+](=O)[O-])nc1C | > 100 | > 100 | > 100 | > 100 | > 100 |  |  |  | 
34 | CC(C)CCN[C@@H]1CCc2cc(O)c(N3CC(=O)NS3(=O)=O)c(F)c2C1 |  |  |  |  |  |  | > 100 µM | > 100 µM | 
35 | O=C(NS(=O)(=O)c1ccccc1)C(Cc1ccccc1)C(Cc1ccccc1)C(=O)NS(=O)(=O)c1ccccc1 (stereo not drawn) | > 100 | > 100 | > 100 | > 100 | > 100 |  |  |  | 
36 | COC1OC2COC(c3ccccc3)OC2C(O)C1Br (stereo not drawn) | > 100 | > 100 |  | > 100 | > 100 | > 100 |  |  | 
